Experimental data reported in BigSolDB 2.1.

Nc1nc(N)nc(-c2ccncc2)n1
solubility (mole fraction)
Settings	288.15 K	293.15 K	298.15 K	303.15 K	308.15 K	313.15 K	318.15 K
in THF	0.00308	0.00334	0.00362	0.0039	0.00407	0.00433	0.00455
in ethanol	0.000734	0.000813	0.000925	0.0011	0.00122	0.00137	0.00159
in isopropanol	0.000426	0.000506	0.000641	0.000787	0.000925	0.00116	0.00142
in methanol	0.00138	0.00149	0.0017	0.00198	0.00214	0.00237	0.00269
in n-propanol	0.000641	0.00072	0.00083	0.000942	0.00111	0.00128	0.00153
